System in the first test: not listed separately
The experiment in a line: Plasma cholesterol lowering activity in cholesterol fed rat. Particulars: dose 0.13 mg/kg/day in diet, 4 days; 1% cholesterol diet; n=5; mean ± standard deviation; *p < 0.05 vs. control (control 191.0 ± 25.6). Type of test: in vivo, Sprague-Dawley rats. How it is done: 7-week old, male Sprague-Dawley rats were fed a 1% cholesterol diet (containing 0.5% cholic acid and 5% olive oil) for three days, and then the rats were grouped according to the plasma cholesterol level (n=5). They were fed with the diet as described above containing test compound for further 4 days. Blood was collected from the rats during 8:30-10:00 am at the fed state, and the plasma cholesterol level was measured enzymatically. The amount of test compound consumed by rats was calculated on the basis of the amount of the diet consumed by the rats.
With `COc1ccccc1-c1c(NC(=O)Nc2ccc(F)cc2F)oc(=O)c2ccccc12` [Example 15, N-[4-(2-Methoxyphenyl)isocoumarin-3-yl]-N'-(2,4difluorophenyl)urea], the “Cholesterol in Serum” value was 125.2 ± 22.6 mg/dL.

The test is the same for the next values; noted with them: dose 0.14 mg/kg/day in diet, 4 days; 1% cholesterol diet; n=5; mean ± standard deviation; *p < 0.05 vs. control (control 191.0 ± 25.6).
For the compound `COc1ccccc1-c1c(NC(=O)Nc2cc(C)c(OC(C)=O)c(C)c2)oc(=O)c2ccccc12` [Example 14, N-[4-(2-Methoxyphenyl)isocoumarin-3-yl]-N'-(4-acetoxy-3,5-dimethylphenyl)urea], the “Cholesterol in Serum” value worked out at 103.4 ± 23.7 mg/dL.

The next test deals with T1, Acyl-CoA:cholesterol transferase (ACAT) (Rattus norvegicus, UniProt Q7TQM4).
T1 construct: prepared from the microsomal fraction of mucosal cells from the small intestines of 6-week old Sprague-Dawley rats; from tissue; host or cells: microsomal fraction of small-intestinal mucosal cells, Sprague-Dawley rats
T1 sequence (Q7TQM4 1-524): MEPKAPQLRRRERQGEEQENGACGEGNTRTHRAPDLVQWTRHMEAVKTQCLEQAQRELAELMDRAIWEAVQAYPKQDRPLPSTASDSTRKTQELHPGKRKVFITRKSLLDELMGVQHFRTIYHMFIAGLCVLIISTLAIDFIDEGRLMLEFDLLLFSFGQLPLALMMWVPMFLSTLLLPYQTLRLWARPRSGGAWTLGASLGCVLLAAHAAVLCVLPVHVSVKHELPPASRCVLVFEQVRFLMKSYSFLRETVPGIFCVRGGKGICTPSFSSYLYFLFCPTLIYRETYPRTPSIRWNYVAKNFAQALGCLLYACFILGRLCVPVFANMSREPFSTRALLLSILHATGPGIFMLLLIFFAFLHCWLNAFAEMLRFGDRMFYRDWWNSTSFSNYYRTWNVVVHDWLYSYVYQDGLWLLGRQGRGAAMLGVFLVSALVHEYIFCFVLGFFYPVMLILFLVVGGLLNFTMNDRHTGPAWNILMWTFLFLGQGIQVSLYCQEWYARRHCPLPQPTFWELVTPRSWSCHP
Kind of test: Acyl-CoA:cholesterol transferase (ACAT)-inhibiting action. Conditions: 10^-6 M; microsomal fraction of mucosal cells from rat small intestines; labeled cholesterol ester formed from [1-14C]oleyl-CoA; read-out: ACAT inhibiting rate (%) 10^-6 M. In kind it is biochemical, Sprague-Dawley rats. How it is done: The enzyme specimen ACAT was prepared from the microsomal fraction of mucosal cells from the small intestines of 6-week old Sprague-Dawley rats fasted for 20 hours, in accordance with the method described by Heider, et al. on Journal of Lipid Research, Vol. 24, p. 1127 (1982).
The activity of ACAT was calculated by determining the amount of labeled cholesterol ester formed from [1-^14 C]oleyl-CoA and endogenous cholesterol.
In Table 1, the inhibition rate (%) of formation of labeled cholesterol ester by the addition of test compounds (representing the compounds obtained by the following Working Examples 1 to 31) in an amount of 10^-6 M is shown as the index of the action of inhibiting ACAT.
Consider `O=C(Nc1ccc(F)cc1F)Nc1oc(=O)c2ccc(Cl)cc2c1-c1ccccc1` [Example 1, N-(6-Chloro-4-phenylisocoumarin-3-yl)-N'-(2,4-difluorophenyl)urea], for which the inhibition at 1 µM is 98%.
Turning to `CC(C)(C)OC(=O)Nc1oc(=O)c2ccc(Cl)cc2c1-c1ccccc1` [Example 2, t-Butyl N-(6-chloro-4-phenylisocoumarin-3-yl) carbamate], the inhibition at 1 µM was 76.1%.
On to `Cc1cc2c(-c3ccccc3C)c(NC(=O)Nc3ccc(F)cc3F)n(C)c(=O)c2cc1C` [Example 8, N-[1,2-Dihydro-4-(2-methylphenyl)-2,6,7-trimethyl-1-oxoisoquinolin-3-yl]-N'-(2,4-difluorophenyl)urea], for which the inhibition at 1 µM was determined as 64.9%.
On to `O=C(Nc1ccc(F)cc1F)Nc1oc(=O)c2cc(Cl)ccc2c1-c1ccccc1` [Example 9, N-(7-Chloro-4-phenylisocoumarin-3-yl)-N'-(2,4-difluorophenyl)urea], for which the inhibition at 1 µM was 89.8%.
Take `Cc1ccc2c(=O)oc(NC(=O)Nc3ccc(F)cc3F)c(-c3ccc(F)cc3)c2c1` [Example 10, N-[4-(4-Fluorophenyl)-6-methylisocoumarin-3-yl]-N'-(2,4-difluorophenyl)urea]: the inhibition at 1 µM was 98.5%.
Take `O=C(Nc1ccc(F)cc1F)Nc1oc(=O)c2ccccc2c1-c1ccc(F)cc1` [Example 11, N-[4-(4-Fluorophenyl)isocoumarin-3-yl]-N'-(2,4-difluorophenyl)urea]: the inhibition at 1 µM turned out to be 92.1%.
Turning to `O=C(Nc1ccc(F)cc1F)Nc1oc(=O)c2ccccc2c1-c1ccccc1` [Example 12, N-(4-Phenylisocoumarin-3-yl)-N'-(2,4-difluorophenyl)urea], the inhibition at 1 µM is 94.2%.
For the compound `CC(=O)Oc1c(C)cc(NC(=O)Nc2oc(=O)c3ccc(Cl)cc3c2-c2ccccc2)cc1C` [Example 13, N-(6-Chloro-4-phenylisocoumarin-3-yl)-N'-(4-acetoxy-3,5-dimethylphenyl)urea], the inhibition at 1 µM is 95.8%.
Take `COc1ccccc1-c1c(NC(=O)Nc2cc(C)c(OC(C)=O)c(C)c2)oc(=O)c2ccccc12` [Example 14, N-[4-(2-Methoxyphenyl)isocoumarin-3-yl]-N'-(4-acetoxy-3,5-dimethylphenyl)urea]: the inhibition at 1 µM is 99%.
Turning to `COc1ccccc1-c1c(NC(=O)Nc2ccc(F)cc2F)oc(=O)c2ccccc12` [Example 15, N-[4-(2-Methoxyphenyl)isocoumarin-3-yl]-N'-(2,4difluorophenyl)urea], the inhibition at 1 µM is 99.4%.
On the same count and under the same terms, with `O=C(Nc1ccc(F)cc1F)Nc1oc(=O)c2ccc(F)cc2c1-c1ccc(F)cc1` [Example 16, N-[6-Fluoro-4-(4-fluorophenyl)isocoumarin-3-yl]-N'-(2,4-difluorophenyl)urea] the figure was 60.2%; with `CC(=O)Oc1c(C)cc(NC(=O)Nc2oc(=O)c3ccc(F)cc3c2-c2ccc(F)cc2)cc1C` [Example 17, N-[6-Fluoro-4-(4-fluorophenyl)isocoumarin-3-yl]-N'-(4-acetoxy-3,5-dimethylphenyl)urea], 65.7%; with `CC(=O)Oc1c(C)cc(NC(=O)Nc2oc(=O)c3ccccc3c2-c2ccccc2)cc1C` [Example 18, N-(4-Isocoumarin-3-yl)-N'-(4-acetoxy-3,5-dimethylphenyl)urea], 83.2%.
As to `COc1ccccc1-c1c(NC(=O)NC2CCCCC2)oc(=O)c2ccccc12` [Example 19, N-[4-(2-Methoxyphenyl)isocoumarin-3-yl]-N'-cyclohexylurea], the inhibition at 1 µM is 97.7%.
In the case of `CCOC(=O)CNC(=O)Nc1oc(=O)c2ccccc2c1-c1ccccc1OC` [Example 20, N-[4-(2-Methoxyphenyl)isocoumarin-3-yl]-N'-ethoxycarbonyl-methylurea], the inhibition at 1 µM worked out at 88.7%.
For the compound `Cn1c(NC(=O)Nc2ccc(F)cc2F)c(-c2cc(C(C)(C)C)c(O)c(C(C)(C)C)c2)c2ccccc2c1=O` [Example 23, N-[4-(3,5-Di-t-butyl-4-hydroxyphenyl)-1,2-dihydro-2-methyl-1-oxoisoquinolin-3-yl-]-N'-(2,4-difluorophenyl)urea], the inhibition at 1 µM worked out at 54.3%.
Consider `CC(=O)Oc1c(C)cc(NC(=O)NC2=C(c3ccccc3)c3ccccc3CS2)cc1C` [Example 26, N-(4-acetoxy-3,5-dimethylphenyl)-N'-(4-phenyl-1H-2-benzothiopyran-3-yl)urea], for which the inhibition at 1 µM came to 94.8%.
Regarding `COc1ccccc1C1=C(NC(=O)Nc2cc(C)c(OC(C)=O)c(C)c2)SCc2ccccc21` [Example 27, N-(4-Acetoxy-3,5-dimethylphenyl)-N'-[4-(2-methoxyphenyl)-1H-2-benzothiopyran-3-yl]urea], the inhibition at 1 µM amounted to 99.3%.
Same read-out and setting: then `COc1ccccc1C1=C(NC(=O)Nc2ccc(N(C)C)cc2)SCc2ccccc21` [Example 28, N-(4-Dimethylaminophenyl)-N'-[4-(2-methoxyphenyl)-1H-2-benzothiopyran-3-yl]urea], with 92%; and `Cc1cc(NC(=O)NC2=C(c3ccccc3)c3ccccc3CS2)cc(C)c1O` [Example 29, N-(4-Hydroxy-3,5-dimethylphenyl)-N'-(4-phenyl-1H-2-benzothiopyran-3-yl)urea], with 95.5%.

(Values after US5198462A, “Heterocyclic amine, derivatives, their production and use” (Takeda Chemical Industries, Ltd., priority 1990, dated 1993).)
